Laboratory results published in the supplement of paper PMC10307832.

Assays:
Test in all cases: relative viability (nuclei count vs DMSO), 5 days (fraction); higher = more cells survive
GSK126 + Trametinib = compound: CC[C@H](C)N1C=C(C2=C(C=C(C=C21)C3=CN=C(C=C3)N4CCNCC4)C(=O)NCC5=C(C=C(NC5=O)C)C)C [GSK126] + CC(=O)Nc1cccc(-n2c(=O)n(C3CC3)c(=O)c3c(Nc4ccc(I)cc4F)n(C)c(=O)c(C)c32)c1 [Trametinib] (partner 0.02 µM)
How it was run: (§1)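 Dosing by pin tool came one day after lung cancer cell lines were seeded in 1536-well plates, using either one drug or a fixed anchor-drug dose plus five library-drug doses (not always all listed) in √10 steps. After 5 days, nuclei were counted on 4× images. Relative viability is treated-well nuclei count divided by vehicle-well nuclei count, and values are medians of duplicate plates.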

Carboplatin + Alpelisib = compound: C1CC(C1)(C(=O)O)C(=O)O.[NH2-].[NH2-].[Pt+2] [Carboplatin] + Cc1nc(NC(=O)N2CCC[C@H]2C(N)=O)sc1-c1ccnc(C(C)(C)C(F)(F)F)c1 [Alpelisib] (partner 2 µM)
How it was run: as §1

GSK126 + Lapatinib = compound: CC[C@H](C)N1C=C(C2=C(C=C(C=C21)C3=CN=C(C=C3)N4CCNCC4)C(=O)NCC5=C(C=C(NC5=O)C)C)C [GSK126] + CS(=O)(=O)CCNCc1ccc(-c2ccc3ncnc(Nc4ccc(OCc5cccc(F)c5)c(Cl)c4)c3c2)o1 [Lapatinib] (partner 2 µM)
How it was run: as §1

Carboplatin + Olaparib = compound: C1CC(C1)(C(=O)O)C(=O)O.[NH2-].[NH2-].[Pt+2] [Carboplatin] + O=C(c1cc(Cc2n[nH]c(=O)c3ccccc23)ccc1F)N1CCN(C(=O)C2CC2)CC1 [Olaparib] (partner 8 µM)
How it was run: as §1

Row | Cell Line | relative viability (GSK126 + Trametinib; first compound 0.08 µM) | relative viability (GSK126 + Trametinib; first compound 0.253 µM) | relative viability (GSK126 + Trametinib; first compound 0.8 µM) | relative viability (GSK126 + Trametinib; first compound 2.53 µM) | relative viability (GSK126 + Trametinib; first compound 8 µM) | relative viability (Carboplatin + Alpelisib; first compound 0.08 µM) | relative viability (Carboplatin + Alpelisib; first compound 0.253 µM) | relative viability (Carboplatin + Alpelisib; first compound 0.8 µM) | relative viability (Carboplatin + Alpelisib; first compound 2.53 µM) | relative viability (Carboplatin + Alpelisib; first compound 8 µM) | relative viability (GSK126 + Lapatinib; first compound 0.08 µM) | relative viability (GSK126 + Lapatinib; first compound 0.253 µM) | relative viability (GSK126 + Lapatinib; first compound 0.8 µM) | relative viability (GSK126 + Lapatinib; first compound 2.53 µM) | relative viability (GSK126 + Lapatinib; first compound 8 µM) | relative viability (Carboplatin + Olaparib; first compound 0.08 µM) | relative viability (Carboplatin + Olaparib; first compound 0.253 µM) | relative viability (Carboplatin + Olaparib; first compound 0.8 µM) | relative viability (Carboplatin + Olaparib; first compound 2.53 µM) | relative viability (Carboplatin + Olaparib; first compound 8 µM)
1 | NCI-H1993 | 0.517 | 0.525 | 0.448 | 0.54 | 0.467 | 0.663 | 0.745 | 0.643 | 0.62 | 0.678 | 0.884 | 0.737 | 0.753 | 0.821 | 0.712 | 0.854 | 1.22 | 0.993 | 0.923 | 0.706
2 | NCI-H2009 | 0.332 | 0.233 | 0.286 | 0.348 | 0.321 | 1.3 | 1.11 | 1.15 | 0.973 | 0.695 | 1.23 | 0.893 | 0.985 | 0.942 | 1.06 | 0.65 | 0.653 | 0.658 | 0.594 | 0.437
3 | NCI-H2023 | 0.718 | 0.6 | 0.646 | 0.533 | 0.603 | 0.65 | 0.546 | 0.601 | 0.397 | 0.193 | 1.33 | 0.797 | 1.04 | 1.23 | 1.2 | 0.473 | 0.445 | 0.415 | 0.231 | 0.135
4 | NCI-H2085 | 0.614 | 0.658 | 0.554 | 0.569 | 0.568 | 0.998 | 1.05 | 0.907 | 0.882 | 0.756 | 0.922 | 0.847 | 0.78 | 0.803 | 0.78 | 0.817 | 0.844 | 0.761 | 0.786 | 0.687
5 | NCI-H2087 | 0.223 | 0.211 | 0.246 | 0.2 | 0.2 | 1.18 | 1.04 | 0.992 | 0.848 | 0.647 | 1.41 | 0.931 | 1.11 | 1.22 | 1.3 | 0.69 | 0.674 | 0.578 | 0.553 | 0.328
6 | NCI-H2126 | 0.552 | 0.576 | 0.536 | 0.494 | 0.564 | 0.777 | 0.763 | 0.795 | 0.758 | 0.713 | 0.758 | 0.792 | 0.726 | 0.819 | 0.782 | 0.936 | 0.959 | 0.903 | 0.915 | 0.763
7 | NCI-H2170 | 1.05 | 0.964 | 0.893 | 0.891 | 1.03 | 0.882 | 0.852 | 0.801 | 0.794 | 0.636 | 0.253 | 0.266 | 0.319 | 0.288 | 0.27 | 0.621 | 0.668 | 0.555 | 0.567 | 0.37
8 | NCI-H2228 | 0.677 | 0.502 | 0.407 | 0.606 | 0.513 | 0.813 | 0.687 | 0.561 | 0.593 | 0.566 | 1.11 | 1.15 | 1.06 | 1.16 | 1.33 | 0.927 | 0.514 | 0.553 | 0.645 | 0.436
9 | NCI-H2347 | 0.289 | 0.276 | 0.261 | 0.303 | 0.298 | 1.02 | 1.12 | 1 | 0.97 | 0.838 | 1.04 | 1.04 | 0.917 | 0.994 | 0.94 | 0.55 | 0.568 | 0.57 | 0.546 | 0.498
10 | NCI-H2405 | 0.817 | 0.587 | 0.611 | 0.614 | 0.636 | 0.925 | 0.734 | 0.671 | 0.763 | 0.639 | 1.12 | 1.02 | 1.06 | 1.17 | 1.15 | 0.965 | 0.926 | 0.841 | 0.821 | 0.66
11 | NCI-H3122 | 0.198 | 0.186 | 0.216 | 0.22 | 0.245 | 0.773 | 0.862 | 0.869 | 0.762 | 0.764 | 1.01 | 1.01 | 1.04 | 0.965 | 0.95 | 0.644 | 0.584 | 0.562 | 0.559 | 0.622
12 | PC-3 [JPC-3] | 0.763 | 0.694 | 0.693 | 0.66 | 0.634 | 1.06 | 1.11 | 0.992 | 1 | 0.834 | 0.43 | 0.489 | 0.527 | 0.477 | 0.462 | 1.23 | 1.14 | 1.12 | 1.04 | 0.835
13 | PC-14 | 0.912 | 0.694 | 0.708 | 0.662 | 0.699 | 0.992 | 0.838 | 0.875 | 0.883 | 0.711 | 0.359 | 0.309 | 0.292 | 0.307 | 0.326 | 0.266 | 0.266 | 0.171 | 0.118 | 0.0838
14 | RERF-LC-KJ | 0.902 | 0.981 | 0.733 | 0.841 | 0.825 | 0.887 | 0.806 | 0.81 | 0.883 | 0.594 | 0.927 | 0.854 | 0.822 | 0.889 | 0.867 | 1.03 | 0.866 | 0.884 | 0.657 | 0.416
15 | SK-LU-1 | 0.519 | 0.524 | 0.485 | 0.816 | 0.486 | 0.903 | 1.07 | 0.933 | 0.792 | 0.392 | 0.91 | 0.882 | 0.889 | 0.913 | 0.818 | 0.517 | 0.483 | 0.387 | 0.425 | 0.356
16 | SK-MES-1 | 0.573 | 0.6 | 0.539 | 0.491 | 0.515 | 1.06 | 0.906 | 0.922 | 0.873 | 0.917 | 0.496 | 0.455 | 0.482 | 0.431 | 0.46 | 0.843 | 0.748 | 0.646 | 0.621 | 0.537
